# Source: patent US7045515B2, “β-lactam compounds process for reproducing the same and serum cholesterol-lowering agents containing the same” (Kotobuki Pharmaceutical Co., Ltd., priority 2001, dated 2006)
row,Compound,melting point
1,"CC(=O)OC[C@H]1O[C@@H](Cc2ccc([C@@H]3[C@@H](CCCc4ccc(F)cc4)C(=O)N3c3ccc(F)cc3)cc2)[C@H](OC(C)=O)[C@@H](OC(C)=O)[C@@H]1OC(C)=O (relative stereo) [Compound 3, (3S,2R,4R,5R,6R)-2-[(4-{(4S*,3R*)-1-(4-Fluorophenyl)-3-[3-(4-fluorophenyl)propyl]-2-oxoazetidine-4-yl}phenyl)methyl]-4,5-diacetyloxy-6-(acetoxymethyl)perhydro-2H-pyran-3-ylacetate]",56 to 58 °C
2,"O=C1[C@H](CCCc2ccc(F)cc2)[C@@H](c2ccc(C[C@@H]3O[C@H](CO)[C@@H](O)[C@H](O)[C@H]3O)cc2)N1c1ccc(Cl)cc1 (relative stereo) [Compound 4, (4S*,3R*)-4-(4-{[(2S,5S,3R,4R,6R)-3,4,5-Trihydroxy-6-(hydroxymethyl)perhydro-2H-pyran-2-yl]methyl}phenyl)-1-(4-chlorophenyl)-3-[3-(4-fluorophenyl)propyl]azetidine-2-one]",76 to 78 °C
3,"COc1ccc(N2C(=O)[C@H](CCCc3ccc(F)cc3)[C@H]2c2ccc(CC3O[C@H](CO)[C@@H](O)[C@H](O)[C@H]3O)cc2)cc1 (relative stereo) [Compound 5, (4S*,3R*)-4-(4-{[(5S,2R,3R,4R,6R)-3,4,5-Trihydroxy-6-(hydroxymethyl)perhydro-2H-pyran-2-yl]methyl}phenyl)-1-(4-methoxyphenyl)-3-[3-(4-fluorophenyl)propyl]azetidine-2-one]",73 to 75 °C
4,"COc1ccc(N2C(=O)[C@H](CCCc3ccc(F)cc3)[C@H]2c2ccc(C[C@@H]3O[C@H](COC(C)=O)[C@@H](OC(C)=O)[C@H](OC(C)=O)[C@H]3OC(C)=O)cc2)cc1 (relative stereo) [Compound 6, (3S,2R,4R,5R,6R)-2-[(4-{(4S*,3R*)-1-(4-Methoxyphenyl)-3-[3-(4-fluorophenyl)propyl]-2-oxoazetidine-4-yl}phenyl)methyl]-4,5-diacetyloxy-6-(acetoxymethyl)perhydro-2H-pyran-3-ylacetate]",60 to 62 °C
5,"Cc1ccc(N2C(=O)[C@H](CCCc3ccc(F)cc3)[C@H]2c2ccc(CC3O[C@H](CO)[C@@H](O)[C@H](O)[C@H]3O)cc2)cc1 (relative stereo) [Compound 7, (4S*,3R*)-4-(4-{[(5S,2R,3R,4R,6R)-3,4,5-Trihydroxy-6-(hydroxymethyl)perhydro-2H-pyran-2-yl]methyl}phenyl)-1-(4-methylphenyl)-3-[3-(4-fluorophenyl)propyl]azetidine-2-one]",80 to 82 °C
6,"CC(=O)OC[C@H]1O[C@@H](Cc2ccc([C@@H]3[C@@H](CCCc4ccc(F)cc4)C(=O)N3c3ccc(C)cc3)cc2)[C@H](OC(C)=O)[C@@H](OC(C)=O)[C@@H]1OC(C)=O (relative stereo) [Compound 8, (3S,2R,4R,5R,6R)-2-[(4-{(4S*,3R*)-1-(4-Methylphenyl)-3-[3-(4-fluorophenyl)propyl]-2-oxoazetidine-4-yl}phenyl)methyl]-4,5-diacetyloxy-6-(acetoxymethyl)perhydro-2H-pyran-3-ylacetate]",56 to 58 °C
7,"O=C1[C@H](CCCc2ccc(F)cc2)[C@@H](c2ccc(CC3O[C@H](CO)[C@@H](O)[C@H](O)[C@H]3O)cc2)N1c1ccccc1 (relative stereo) [Compound 9, (4S*,3R*)-4-(4-{[(5S,2R,3R,4R,6R)-3,4,5-Trihydroxy-6-(hydroxymethyl)perhydro-2H-pyran-2-yl]methyl}phenyl)-1-phenyl-3-[3-(4-fluorophenyl)propyl]azetidine-2-one]",84 to 86 °C
8,"CC(=O)OC[C@H]1O[C@@H](Cc2ccc([C@@H]3[C@@H](CCCc4ccc(F)cc4)C(=O)N3c3ccccc3)cc2)[C@H](OC(C)=O)[C@@H](OC(C)=O)[C@@H]1OC(C)=O (relative stereo) [Compound 10, (3S,2R,4R,5R,6R)-2-[(4-{(4S*,3R*)-1-phenyl-3-[3-(4-fluorophenyl)propyl]-2-oxoazetidine-4-yl}phenyl)methyl]4,5-diacetyloxy-6-(acetoxymethyl)perhydro-2H-pyran-3-ylacetate]",60 to 61 °C
9,"O=C1[C@H](CCCc2ccccc2)[C@@H](c2ccc(CC3O[C@H](CO)[C@@H](O)[C@H](O)[C@H]3O)cc2)N1c1ccc(F)cc1 (relative stereo) [Compound 11, (4S*,3R*)-4-(4-{[(5S,2R,3R,4R,6R)-3,4,5-Trihydroxy-6-(hydroxymethyl)perhydro-2H-pyran-2-yl]methyl}phenyl)-1-(4-fluorophenyl)-3-[3-(phenyl)propyl]azetidine-2-one]",74 to 75 °C
10,"O=C1[C@H](CCOc2ccc(F)cc2)[C@@H](c2ccc(CC3O[C@H](CO)[C@@H](O)[C@H](O)[C@H]3O)cc2)N1c1ccc(F)cc1 (relative stereo) [Compound 12, (4S*,3R*)-4-(4-{[(5S,2R,3R,4R,6R)-3,4,5-Trihydroxy-6-(hydroxymethyl)perhydro-2H-pyran-2-yl]methyl}phenyl)-1-(4-fluorophenyl)-3-[2-(4-fluorophenoxy)ethyl]azetidine-2-one]",65 to 67 °C
11,"O=C1[C@H](CCCc2ccc(F)cc2)[C@@H](c2ccc(OCC3O[C@H](CO)[C@@H](O)[C@H](O)[C@H]3O)cc2)N1c1ccc(F)cc1 (relative stereo) [Compound 14, (4S*,3R*)-4-(4-{[(4S,5S,2R,3R,6R)-3,4,5-Trihydroxy-6-(hydroxymethyl)perhydro-2H-pyran-2-yl]methoxy}phenyl)-1-(4-fluorophenyl)-3-[3-(4-fluorophenyl)propyl]azetidine-2-one]",61 to 62 °C
12,"O=C1[C@H](CCCc2ccc(F)cc2)[C@@H](c2ccc(OCC3O[C@H](CO)[C@@H](O)[C@H](O)[C@H]3O)cc2)N1Cc1ccccc1 (relative stereo) [Compound 16, (4S*,3R*)-4-(4-{[(4S,5S,2R,3R,6R)-3,4,5-Trihydroxy-6-(hydroxymethyl)perhydro-2H-pyran-2-yl]methoxy}phenyl)-1-phenylmethyl-3-[3-(4-fluorophenyl)propyl]azetidine-2-one]",73 to 75 °C
13,"CCOC(=O)C(C)(C)Oc1ccc(N2C(=O)[C@H](CCCc3ccc(F)cc3)[C@H]2c2ccc(C[C@@H]3O[C@H](CO)[C@@H](O)[C@H](O)[C@H]3O)cc2)cc1 (relative stereo) [Compound 18, 2-{4-[(4S*,3R*)-4-{[(5S,2R,3R,4R,6R)-3,4,5-Trihydroxy-6-(hydroxymethyl)perhydro-2H-pyran-2-yl]methyl}phenyl-3-[3-(4-fluorophenyl)propyl]-2-oxoazetidinyl]phenoxy}-2-methylpropionic acid ethyl ester]",73 to 74 °C
14,"CC(C)(Oc1ccc(N2C(=O)[C@H](CCCc3ccc(F)cc3)[C@H]2c2ccc(C[C@@H]3O[C@H](CO)[C@@H](O)[C@H](O)[C@H]3O)cc2)cc1)C(=O)O (relative stereo) [Compound 19, 2-{4-[(4S*,3R*)-4-{[(5S,2R,3R,4R,6R)-3,4,5-Trihydroxy-6-(hydroxymethyl)perhydro-2H-pyran-2-yl]methyl}phenyl-3-[3-(4-fluorophenyl)propyl]-2-oxoazetidinyl]phenoxy}-2-methylpropionic acid]",170 to 172 °C
